Patent US20230159556A1, “NOVEL PROTEIN KINASE INHIBITORS” (TENOVA PHARMACEUTICALS INC., priority 2020, published 2023)
Like-named read-outs stand apart in the source and are kept apart here. One block for each compound: values may come before it.

Legend:
[1] = ether bond, 25.0 °C, 16.0 h
EGFR_L858R/T790M/C797S = target: T1, EGFR_L858R/T790M/C797S (Homo sapiens, UniProt P00533, C797S/L858R/T790M); assay: In vitro biochemical kinase assay (33P-ATP filter-binding, Reaction Biology)
T1 construct: Reaction Biology Corporation (contract assay provider)
Experimental: (§1) The biochemical kinase assay was performed at Reaction Biology Corporation (www.reactionbiology.com, Malvern, Pa.) following procedures described in the reference (Anastassiadis, T, et al, Nature Biotechnology, 2011, 29, 1039). Base Reaction buffer includes 20 mM Hepes (pH 7.5), 10 mM MgCl2, 1 mM EGTA, 0.02% Brij35, 0.02 mg/ml BSA, 0.1 mM Na3VO4, 2 mM DTT and 1% DMSO. Required cofactors are added individually to each kinase reaction. Testing compounds were dissolved in 100% DMSO to specific concentration. The serial dilution was conducted by Integra Viaflo Assist in DMSO. Compounds in 100% DMSO are into the kinase reaction mixture by Acoustic technology (Echo550; nanoliter range), incubate for 20 min at room temperature, followed by ^33P-ATP and incubation for 2 hours at room temperature. Radioactivity was then detected by filter-binding method. Kinase activity data were expressed as the percent remaining kinase activity in test samples compared to vehicle (dimethyl sulfoxide) reactions. IC50 values and curve fits were obtained using Prism (GraphPad Software).

[2] = ether bond
[3] = test system: BaF3-EGFR-Del19/T790M/C797S cells; assay: In vivo Cell Transplant Xenograft (CTX) model; design: species or system BALB/c nude mice; conditions: for tumor growth inhibition rate TGITV (%): end of the experiment
Experimental: The pharmacological experiments in vivo were performed on BALB/c nude mice that subcutaneously implanted BaF3-EGFR-Del19/T790M/C797S cells. BALB/c nude mice, female, 6-8 weeks, weighted about 16-19 grams, the mice were kept in a special pathogen-free environment, and in a single ventilation cage (3 mice per cage). The bedding and water of all the cages were disinfected before use. All animals were free to obtain standard certified commercial laboratory diets. The BaF3-EGFR-Del19/T790M/C797S cell (5×10^6 cells/mice) was implanted subcutaneously for tumor growth. After 10 days, the experiment was started the average tumor volume reached about 130 mm^3. The mice were divided into 4 groups with 6 mice in each group. Compound A29 was orally administered once daily continuously for 15 days at 5 mg/kg, 15 mg/kg and 45 mg/kg. The tumor volume was measured twice a week with a two-dimensional caliper and the volume was measured in cubic millimeters and calculated by the following formula: V=0.5 a×b2, where a and b were the major and minor diameters of the tumor, respectively. The tumor volume at day n is expressed as Relative Tumor Volume (RTV) and calculated according to the following formula: RTV=TVn/TV0, where TVn is the tumor volume at day n and TV0 is the tumor volume at day 0. The T/C (the ratio of tumor volume in […] mice) is determined by TIC (%)=(mean RTV of treated group)/(mean RTV of control group)×100%. The tumor growth inhibition rate TGITV (%) is calculated using the formula TGITV (%)=(1−T/C)×100%.

EGFR_WT = target: T2, EGFR_WT (Homo sapiens, UniProt P00533); assay: In vitro biochemical kinase assay (33P-ATP filter-binding, Reaction Biology)
T2 construct: Reaction Biology Corporation (contract assay provider)
Experimental: as §1

Ba/F3_WT cell = assay: BaF3 cell proliferation assay (CelltiterGlo, 72 hr); type: cell-based; conditions: Mus musculus, 72 hr incubation
Experimental: (§2) The BaF3 cell proliferation assay was performed at Pharmaron (www.pharmaron.com, Beijing, China). The Ba/F3_WT and Ba/F3_Del19/T790M/C797S cell lines were maintained in 1640 medium containing 10% FBS, 1*PS and 1*Glutamax. Only cells with viability greater than 90% are used for assays. Dispense 30 μl of cell suspension at 700/well into 384 well microplate, add 30 nl compound solution into 384 cell plate by Echo, cells were incubated for 72 hr in 37° C./5% CO2 incubator, add 30 μl reagent CelltiterGlo assay kit (CTG, Promega) per well and shake plates, incubate the plate (avoiding light) at 37° C./5% CO2 for 30 min. and read the luminescence by Envision. The luminescence values were converted to % Inhibition. Calculate IC50 by fitting % inhibition values and log of compound concentrations to nonlinear regression (dose response−variable slope) with Graphpad 5.0.
(§3) Y=Bottom+(Top−Bottom)/(1+10^((Log IC50−X)*HillSlope))
(§4) X: log of inhibitor concentration; Y: % Inhibition.

[4] = target: Ba/F3_EGFR_del19/T790M/C797S cell (Homo sapiens, UniProt P00533, T790M/C797S, cells depend on it, form not given); assay: as above; type: cell-based; conditions: 72 hr incubation; read-out: IC50 (nM, Ba/F3_EGFR_del19/T790M/C797S cell proliferation)
Experimental: as §2, §3, §4

T2 sequence (P00533 25-1210): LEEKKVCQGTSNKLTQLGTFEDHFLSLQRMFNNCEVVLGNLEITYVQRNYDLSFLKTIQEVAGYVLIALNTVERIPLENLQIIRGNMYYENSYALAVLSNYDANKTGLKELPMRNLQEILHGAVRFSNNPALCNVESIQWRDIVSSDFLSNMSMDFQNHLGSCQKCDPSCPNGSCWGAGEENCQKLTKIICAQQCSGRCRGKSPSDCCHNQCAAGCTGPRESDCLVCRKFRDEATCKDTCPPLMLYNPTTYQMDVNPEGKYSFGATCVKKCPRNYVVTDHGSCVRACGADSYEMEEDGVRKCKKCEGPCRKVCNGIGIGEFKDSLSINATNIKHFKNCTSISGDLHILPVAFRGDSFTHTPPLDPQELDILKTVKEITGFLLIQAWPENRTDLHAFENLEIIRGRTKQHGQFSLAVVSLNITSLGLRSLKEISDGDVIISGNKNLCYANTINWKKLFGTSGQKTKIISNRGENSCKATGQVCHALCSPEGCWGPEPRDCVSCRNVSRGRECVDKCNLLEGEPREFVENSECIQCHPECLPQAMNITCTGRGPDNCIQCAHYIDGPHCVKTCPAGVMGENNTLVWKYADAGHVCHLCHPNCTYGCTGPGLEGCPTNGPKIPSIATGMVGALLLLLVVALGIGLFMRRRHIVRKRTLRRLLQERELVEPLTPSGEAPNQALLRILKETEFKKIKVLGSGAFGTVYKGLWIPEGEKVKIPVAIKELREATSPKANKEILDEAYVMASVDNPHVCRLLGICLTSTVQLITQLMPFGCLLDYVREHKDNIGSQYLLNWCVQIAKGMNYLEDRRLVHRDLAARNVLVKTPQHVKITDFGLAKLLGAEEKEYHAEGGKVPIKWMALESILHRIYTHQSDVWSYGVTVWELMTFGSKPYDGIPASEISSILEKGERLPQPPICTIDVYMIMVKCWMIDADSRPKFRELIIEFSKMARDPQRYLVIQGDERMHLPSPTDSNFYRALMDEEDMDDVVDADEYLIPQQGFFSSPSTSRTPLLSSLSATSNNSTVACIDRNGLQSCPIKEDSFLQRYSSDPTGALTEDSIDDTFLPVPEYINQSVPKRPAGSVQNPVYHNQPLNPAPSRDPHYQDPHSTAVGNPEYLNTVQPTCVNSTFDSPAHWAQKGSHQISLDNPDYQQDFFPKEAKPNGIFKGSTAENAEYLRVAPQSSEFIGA
T1 sequence (P00533 25-1210 T790M/C797S/L858R): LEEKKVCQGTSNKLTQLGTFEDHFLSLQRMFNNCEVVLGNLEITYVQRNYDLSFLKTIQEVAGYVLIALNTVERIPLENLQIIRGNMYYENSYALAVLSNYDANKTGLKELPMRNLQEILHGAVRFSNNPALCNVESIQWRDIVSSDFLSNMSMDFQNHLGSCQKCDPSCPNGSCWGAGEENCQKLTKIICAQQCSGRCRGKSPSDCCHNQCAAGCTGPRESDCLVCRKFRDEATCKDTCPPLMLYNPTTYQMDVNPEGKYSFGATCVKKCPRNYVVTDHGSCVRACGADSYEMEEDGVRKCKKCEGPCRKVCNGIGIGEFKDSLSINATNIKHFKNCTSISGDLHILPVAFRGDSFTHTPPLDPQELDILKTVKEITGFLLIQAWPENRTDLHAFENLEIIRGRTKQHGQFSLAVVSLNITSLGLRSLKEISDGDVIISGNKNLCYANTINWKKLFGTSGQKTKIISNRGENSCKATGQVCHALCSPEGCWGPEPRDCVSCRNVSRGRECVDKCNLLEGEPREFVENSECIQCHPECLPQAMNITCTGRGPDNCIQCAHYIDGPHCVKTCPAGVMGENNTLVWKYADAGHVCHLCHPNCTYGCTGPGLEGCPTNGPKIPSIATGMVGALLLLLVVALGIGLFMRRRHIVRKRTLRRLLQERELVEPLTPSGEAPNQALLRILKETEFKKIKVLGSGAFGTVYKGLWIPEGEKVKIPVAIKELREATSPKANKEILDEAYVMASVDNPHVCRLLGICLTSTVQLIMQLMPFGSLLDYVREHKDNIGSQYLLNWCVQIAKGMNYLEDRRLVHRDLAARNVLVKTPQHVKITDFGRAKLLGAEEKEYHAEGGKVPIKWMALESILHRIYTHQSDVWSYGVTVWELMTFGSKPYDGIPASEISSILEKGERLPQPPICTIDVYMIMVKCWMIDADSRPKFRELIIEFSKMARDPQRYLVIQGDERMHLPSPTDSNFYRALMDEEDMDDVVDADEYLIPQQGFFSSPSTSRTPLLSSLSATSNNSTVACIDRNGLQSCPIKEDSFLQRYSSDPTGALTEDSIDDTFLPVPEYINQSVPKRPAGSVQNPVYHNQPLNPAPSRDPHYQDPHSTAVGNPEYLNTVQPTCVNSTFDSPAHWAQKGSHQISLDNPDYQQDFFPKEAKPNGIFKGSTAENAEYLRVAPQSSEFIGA
Sequence of Ba/F3_EGFR_del19/T790M/C797S cell (P00533 with tags, fused parts or gaps DEL746-750/T790M/C797S, form open): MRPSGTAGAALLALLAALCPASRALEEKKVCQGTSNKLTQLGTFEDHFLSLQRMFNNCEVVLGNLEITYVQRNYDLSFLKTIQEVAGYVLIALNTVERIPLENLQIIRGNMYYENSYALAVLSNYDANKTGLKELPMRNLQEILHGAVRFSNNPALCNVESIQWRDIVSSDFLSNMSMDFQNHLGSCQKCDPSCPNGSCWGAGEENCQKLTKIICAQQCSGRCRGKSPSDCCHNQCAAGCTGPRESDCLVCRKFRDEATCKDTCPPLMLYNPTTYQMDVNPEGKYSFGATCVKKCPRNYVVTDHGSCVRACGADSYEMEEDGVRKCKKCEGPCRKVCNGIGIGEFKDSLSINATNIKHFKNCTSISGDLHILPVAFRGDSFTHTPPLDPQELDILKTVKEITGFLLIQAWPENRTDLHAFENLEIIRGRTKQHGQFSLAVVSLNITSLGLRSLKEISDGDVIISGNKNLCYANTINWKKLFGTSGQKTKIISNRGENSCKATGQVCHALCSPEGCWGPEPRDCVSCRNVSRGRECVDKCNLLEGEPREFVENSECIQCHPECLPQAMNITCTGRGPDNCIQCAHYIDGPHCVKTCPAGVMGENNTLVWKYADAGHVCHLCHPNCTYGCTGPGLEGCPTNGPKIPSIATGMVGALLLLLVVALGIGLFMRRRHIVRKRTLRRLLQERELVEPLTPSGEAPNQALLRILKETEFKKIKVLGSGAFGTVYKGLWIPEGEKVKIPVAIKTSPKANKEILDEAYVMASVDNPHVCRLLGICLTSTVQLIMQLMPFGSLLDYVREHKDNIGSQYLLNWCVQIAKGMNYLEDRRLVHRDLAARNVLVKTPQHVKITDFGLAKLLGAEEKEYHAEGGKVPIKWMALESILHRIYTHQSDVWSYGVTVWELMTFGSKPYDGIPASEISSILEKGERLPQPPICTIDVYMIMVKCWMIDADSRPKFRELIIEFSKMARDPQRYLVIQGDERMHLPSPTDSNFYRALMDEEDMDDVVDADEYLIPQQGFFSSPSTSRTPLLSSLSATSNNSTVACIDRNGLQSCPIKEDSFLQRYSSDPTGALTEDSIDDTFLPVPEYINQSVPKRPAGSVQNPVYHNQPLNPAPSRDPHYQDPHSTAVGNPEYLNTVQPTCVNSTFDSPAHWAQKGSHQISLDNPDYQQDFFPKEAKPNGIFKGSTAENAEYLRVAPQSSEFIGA

IC50 (EGFR_L858R/T790M/C797S): 5580 nM
Structure (SMILES): COc1cc(N2CCN(C)CC2)c2cc1Nc1ncc(Cl)c(n1)Nc1ccc(cc1S(C)(=O)=O)OCCC2 [Compound A1, 3^5-chloro-1^6-methoxy-1^4-(4-methylpiperazin-1-yl)-5^2-(methylsulfonyl)-6-oxa-2,4-diaza-3(2,4)-pyrimidina-1(1,3),5(1,4)-dibenzenacyclononaphane]
ring closure, yield of all isomers ([1]; from COc1cc(N2CCN(C)CC2)c(CCCO)cc1Nc1ncc(Cl)c(Nc2ccc(O)cc2S(C)(=O)=O)n1, DIAD/PPh3, THF, 18.8 mM): 6%
ring closure, isolated yield ([2]; from COc1cc(N2CCN(C)CC2)c(CCCO)cc1Nc1ncc(Cl)c(Nc2ccc(O)cc2S(C)(=O)=O)n1, 16-membered ring, PPh3/DIAD, THF, 18.8 mM): 6%

IC50 (EGFR_WT): 9.2 nM
IC50 (EGFR_L858R/T790M/C797S): 0.5 nM
IC50 (Ba/F3_WT cell): 1320 nM
GI50 [4]: 16.4 nM
Structure (SMILES): COc1cc(N2CCC(N3CCN(C)CC3)CC2)c2cc1Nc1ncc(Br)c(n1)Nc1ccc(cc1N(C)S(C)(=O)=O)OCCCCC2 [Compound A29, N-(3^5-bromo-1^6-methoxy-1^4-(4-(4-methylpiperazin-1-yl)piperidin-1-yl)-6-oxa-2,4-diaza-3(2,4)-pyrimidina-1(1,3),5(1,4)-dibenzenacycloundecaphane-5^2-yl)-N-methylmethanesulfonamide]
Tumor Volume ([3]; 5 mg/kg orally once daily, Day 0): 130 mm^3
Tumor Volume ([3]; 5 mg/kg orally once daily, Day 2): 212 mm^3
Tumor Volume ([3]; 5 mg/kg orally once daily, Day 4): 279 mm^3
Tumor Volume ([3]; 5 mg/kg orally once daily, Day 7): 462 mm^3
Tumor Volume ([3]; 5 mg/kg orally once daily, Day 9): 633 mm^3
Tumor Volume ([3]; 5 mg/kg orally once daily, Day 11): 819 mm^3
Tumor Volume ([3]; 5 mg/kg orally once daily, Day 14): 1061 mm^3
tumor growth inhibition rate TGITV (%) ([3]; 5 mg/kg orally once daily): 68%
Tumor Volume ([3]; 15 mg/kg orally once daily, Day 0): 130 mm^3
Tumor Volume ([3]; 15 mg/kg orally once daily, Day 2): 171 mm^3
Tumor Volume ([3]; 15 mg/kg orally once daily, Day 4): 226 mm^3
Tumor Volume ([3]; 15 mg/kg orally once daily, Day 7): 346 mm^3
Tumor Volume ([3]; 15 mg/kg orally once daily, Day 9): 469 mm^3
Tumor Volume ([3]; 15 mg/kg orally once daily, Day 11): 597 mm^3
Tumor Volume ([3]; 15 mg/kg orally once daily, Day 14): 781 mm^3
tumor growth inhibition rate TGITV (%) ([3]; 15 mg/kg orally once daily): 76%
Tumor Volume ([3]; 45 mg/kg orally once daily, Day 0): 130 mm^3
Tumor Volume ([3]; 45 mg/kg orally once daily, Day 2): 147 mm^3
Tumor Volume ([3]; 45 mg/kg orally once daily, Day 4): 172 mm^3
Tumor Volume ([3]; 45 mg/kg orally once daily, Day 7): 108 mm^3
Tumor Volume ([3]; 45 mg/kg orally once daily, Day 9): 78 mm^3
Tumor Volume ([3]; 45 mg/kg orally once daily, Day 11): 25 mm^3
Tumor Volume ([3]; 45 mg/kg orally once daily, Day 14): 0 mm^3
tumor growth inhibition rate TGITV (%) ([3]; 45 mg/kg orally once daily): 100%
tumor growth inhibition (in words) ([3]; all doses (5, 15, 45 mg/kg)): significant tumor growth inhibition
ring closure, yield of all isomers ([1]; from COc1cc(N2CCC(N3CCN(C)CC3)CC2)c(CCCCCBr)cc1Nc1ncc(Br)c(Nc2ccc(O)cc2N(C)S(C)(=O)=O)n1, K2CO3/KI, DMF, 10.2 mM): 55%
ring closure, isolated yield ([2]; from COc1cc(N2CCC(N3CCN(C)CC3)CC2)c(CCCCCBr)cc1Nc1ncc(Br)c(Nc2ccc(O)cc2N(C)S(C)(=O)=O)n1, 18-membered ring, KI/K2CO3, DMF, 10.2 mM): 55%

IC50 (EGFR_WT): 14.9 nM
IC50 (EGFR_L858R/T790M/C797S): 0.6 nM
IC50 (Ba/F3_WT cell): 1690 nM
GI50 [4]: 22.4 nM
Structure (SMILES): CCN(c1cc2ccc1Nc1nc(ncc1Br)Nc1cc(c(N3CCC(N4CCN(C)CC4)CC3)cc1OC)CCCCCO2)S(C)(=O)=O [Compound A30, N-(3^5-bromo-1^6-methoxy-1^4-(4-(4-methylpiperazin-1-yl)piperidin-1-yl)-6-oxa-2,4-diaza-3(2,4)-pyrimidina-1(1,3),5(1,4)-dibenzenacycloundecaphane-5^2-yl)-N-ethylmethanesulfonamide]

IC50 (EGFR_WT): 413 nM
IC50 (EGFR_L858R/T790M/C797S): 1.8 nM
IC50 (Ba/F3_WT cell): 6490 nM
GI50 [4]: 75 nM
Structure (SMILES): COc1cc(N2CCC(N3CCN(C)CC3)CC2)c2cc1Nc1ncc(Br)c(n1)Nc1ccc(cc1P(C)(C)=O)OCCCCC2 [Compound A33, (3^5-bromo-1^6-methoxy-1^4-(4-(4-methylpiperazin-1-yl)piperidin-1-yl)-6-oxa-2,4-diaza-3(2,4)-pyrimidina-1(1,3),5(1,4)-dibenzenacycloundecaphane-5^2-yl)dimethylphosphine oxide]

IC50 (EGFR_L858R/T790M/C797S): 7.1 nM
Structure (SMILES): COc1cc(N2CCC(N3CCN(C)CC3)CC2)c2cc1Nc1ncc(Cl)c(n1)Nc1ccc(cc1N(C)S(C)(=O)=O)OCCCC(=O)N2 [Compound A39, N-(3^5-chloro-1^6-methoxy-1^4-(4-(4-methylpiperazin-1-yl)piperidin-1-yl)-10-oxo-6-oxa-2,4,11-triaza-3(2,4)-pyrimidina-1(1,3),5(1,4)-dibenzenacycloundecaphane-5^2-yl)-N-methylmethanesulfonamide]
ring closure, yield of all isomers ([1]; from COc1cc(N2CCC(N3CCN(C)CC3)CC2)c(NC(=O)CCCBr)cc1Nc1ncc(Cl)c(Nc2ccc(O)cc2N(C)S(C)(=O)=O)n1, K2CO3/KI, DMF, 20.0 mM): 4.2%
